Legend:
Assay type in all cases: in vivo
Details in all cases: 14 days after application
[1] = system: upland rice (Oryza sp., var.Tebonnet, RICE); test: Pre-emerge greenhouse screening, crop safety (phytotoxicity rating)
Excerpt: (§1) A standard greenhouse herbicide activity screening system was used to evaluate the herbicidal efficacy and crop safety of these test compounds. Seven broadleaf weed species including redroot pigweed (Amaranthus retroflexus, AMARE), velvetleaf (Abutilon theophrasti, ABUTH), sicklepod (Cassia obtusifolia, CASOB), ivyleaf morningglory (Ipomoea hederacea, IPOHE), lambsquarters (Chenopodium album, CHEAL), common ragweed (Ambrosia artemisiifolia L., AMBEL), and cocklebur (Xanthium strumarium, XANST) were used as test species. Four grass weed species including green foxtail (Setaria viridis, SETVI), barnyardgrass (Echinochloa crus-galli, ECHCG), johnsongrass (Sorghum halepense, SORHA), and large crabgrass (Digitaria sanguinalis, DIGSA) were also used. In addition, three crop species, field corn (Zea mays L., var. Dekalb 535, CORN), soybean (Glycine max L., var. Pella 86, SOY), and upland rice (Oryza sp., var.Tebonnet, RICE) were included.
(§2) All plants were grown in 10 cm square plastic pots which were filled with a sandy loam soil mix. For pre-emerge tests, seeds were planted one day prior to application of the test compounds. For post-emerge tests, seeds were planted 8-21 days prior to the test to allow emergence and good foliage development prior to application of the test substances. At the time of the post-emerge application, plants of all species were usually at the 2-3 leaf stage of development.
(§3) All test compounds were dissolved in acetone and applied to the test units in a volume of 187 1/ha. Test materials were applied at rates ranging from 15 g ai/ha to 1000 g ai/ha using a track sprayer equipped with a TJ8001E even flow flat fan spray nozzle. Plants were arranged on a shelf so that the top of the canopy (post-emerge) or top of the soil surface (pre-emerge) was 40-45 cm below the nozzle. Pressurized air was used to force the test solution through the nozzle as it was mechanically advanced (via electrically driven chain drive) over the top of all test plants/pots. This application simulates a typical commercial field herbicide application.
(§4) In the post-emerge test, a commercial non-ionic surfactant was also included (0.25% v/v) to enhance wetting of the leaf surfaces of target plants. Immediately after application, test units of the pre-emerge applications were watered at the soil surface to incorporate the test materials. Subsequently, these test units were bottom-watered. Post-emerge test units were always bottom-watered.
(§5) At 14 days after application of the test materials, phytotoxicity ratings were recorded. A rating scale of 0-100 was used as previously described in Research Methods in Weed Science, 2nd edition, B. Truelove, Ed., Southern Weed Science Society, Auburn University, Auburn, Ala., 1977. Briefly, “0” corresponds to no damage and “100” corresponds to complete death of all plants in the test unit. This scale was used both to determine efficacy against weed species and damage to crop species. Herbicide activity data for various compounds of this invention, which are shown by compound No. in Tables I-VI, are shown in Tables VIII-IX.

[2] = system: soybean (Glycine max L., var. Pella 86, SOY); test: as above
Excerpt: as §1, §2, §3, §4, §5

[3] = system: field corn (Zea mays L., var. Dekalb 535, CORN); test: as above
Excerpt: as §1, §2, §3, §4, §5

[4] = system: barnyardgrass (Echinochloa crus-galli, ECHCG); test: Pre-emerge greenhouse herbicide activity screening, phytotoxicity rating
Excerpt: as §1, §2, §3, §4, §5

[5] = system: sicklepod (Cassia obtusifolia, CASOB); test: as above
Excerpt: as §1, §2, §3, §4, §5

[6] = system: lambsquarters (Chenopodium album, CHEAL); test: as above
Excerpt: as §1, §2, §3, §4, §5

[7] = system: ivyleaf morningglory (Ipomoea hederacea, IPOHE); test: as above
Excerpt: as §1, §2, §3, §4, §5

[8] = system: velvetleaf (Abutilon theophrasti, ABUTH); test: as above
Excerpt: as §1, §2, §3, §4, §5

[9] = system: johnsongrass (Sorghum halepense, SORHA); test: as above
Excerpt: as §1, §2, §3, §4, §5

[10] = system: common ragweed (Ambrosia artemisiifolia L., AMBEL); test: as above
Excerpt: as §1, §2, §3, §4, §5

[11] = system: green foxtail (Setaria viridis, SETVI); test: as above
Excerpt: as §1, §2, §3, §4, §5

[12] = system: redroot pigweed (Amaranthus retroflexus, AMARE); test: as above
Excerpt: as §1, §2, §3, §4, §5

[13] = system: large crabgrass (Digitaria sanguinalis, DIGSA); test: as above
Excerpt: as §1, §2, §3, §4, §5

[14] = system: field corn (Zea mays L., var. Dekalb 535, CORN); test: Post-emerge greenhouse screening, crop safety / corn selectivity (phytotoxicity rating)
Excerpt: as §1, §2, §3, §4, §5

[15] = system: upland rice (Oryza sp., var.Tebonnet, RICE); test: Post-emerge greenhouse screening, crop safety (phytotoxicity rating)
Excerpt: as §1, §2, §3, §4, §5

[16] = system: soybean (Glycine max L., var. Pella 86, SOY); test: as above
Excerpt: as §1, §2, §3, §4, §5

[17] = system: barnyardgrass (Echinochloa crus-galli, ECHCG); test: Post-emerge greenhouse herbicide activity screening, phytotoxicity rating
Excerpt: as §1, §2, §3, §4, §5

[18] = system: sicklepod (Cassia obtusifolia, CASOB); test: as above
Excerpt: as §1, §2, §3, §4, §5

[19] = system: lambsquarters (Chenopodium album, CHEAL); test: as above
Excerpt: as §1, §2, §3, §4, §5

[20] = system: ivyleaf morningglory (Ipomoea hederacea, IPOHE); test: as above
Excerpt: as §1, §2, §3, §4, §5

[21] = system: velvetleaf (Abutilon theophrasti, ABUTH); test: as above
Excerpt: as §1, §2, §3, §4, §5

[22] = system: johnsongrass (Sorghum halepense, SORHA); test: as above
Excerpt: as §1, §2, §3, §4, §5

[23] = system: common ragweed (Ambrosia artemisiifolia L., AMBEL); test: as above
Excerpt: as §1, §2, §3, §4, §5

[24] = system: green foxtail (Setaria viridis, SETVI); test: as above
Excerpt: as §1, §2, §3, §4, §5

[25] = system: redroot pigweed (Amaranthus retroflexus, AMARE); test: as above
Excerpt: as §1, §2, §3, §4, §5

[26] = system: large crabgrass (Digitaria sanguinalis, DIGSA); test: as above
Excerpt: as §1, §2, §3, §4, §5

Cn1c(C(F)(F)F)cc(=O)n(-c2cc(Oc3ncccc3C(F)(F)F)c(Cl)cc2F)c1=S [Compound 1-15]
RICE crop damage, phytotoxicity rating (0-100 scale) ([1]; 125 g ai/ha): 0
RICE crop damage, phytotoxicity rating (0-100 scale) ([1]; 250 g ai/ha): 0
SOY crop damage, phytotoxicity rating (0-100 scale) ([2]; 125 g ai/ha): 0
SOY crop damage, phytotoxicity rating (0-100 scale) ([2]; 250 g ai/ha): 35
CORN crop damage, phytotoxicity rating (0-100 scale) ([3]; 125 g ai/ha): 8
CORN crop damage, phytotoxicity rating (0-100 scale) ([3]; 250 g ai/ha): 8
ECHCG phytotoxicity rating (0-100 scale) ([4]; 125 g ai/ha): 50
ECHCG phytotoxicity rating (0-100 scale) ([4]; 250 g ai/ha): 65
CASOB phytotoxicity rating (0-100 scale) ([5]; 125 g ai/ha): 55
CASOB phytotoxicity rating (0-100 scale) ([5]; 250 g ai/ha): 85
CHEAL phytotoxicity rating (0-100 scale) ([6]; 125 g ai/ha): 100
CHEAL phytotoxicity rating (0-100 scale) ([6]; 250 g ai/ha): 100
IPOHE phytotoxicity rating (0-100 scale) ([7]; 125 g ai/ha): 95
IPOHE phytotoxicity rating (0-100 scale) ([7]; 250 g ai/ha): 100
ABUTH phytotoxicity rating (0-100 scale) ([8]; 125 g ai/ha): 100
ABUTH phytotoxicity rating (0-100 scale) ([8]; 250 g ai/ha): 100
SORHA phytotoxicity rating (0-100 scale) ([9]; 125 g ai/ha): 60
SORHA phytotoxicity rating (0-100 scale) ([9]; 250 g ai/ha): 98
AMBEL phytotoxicity rating (0-100 scale) ([10]; 125 g ai/ha): 75
AMBEL phytotoxicity rating (0-100 scale) ([10]; 250 g ai/ha): 90
SETVI phytotoxicity rating (0-100 scale) ([11]; 125 g ai/ha): 100
SETVI phytotoxicity rating (0-100 scale) ([11]; 250 g ai/ha): 100
AMARE phytotoxicity rating (0-100 scale) ([12]; 125 g ai/ha): 100
AMARE phytotoxicity rating (0-100 scale) ([12]; 250 g ai/ha): 100
DIGSA phytotoxicity rating (0-100 scale) ([13]; 125 g ai/ha): 99
DIGSA phytotoxicity rating (0-100 scale) ([13]; 250 g ai/ha): 100
CORN crop damage, phytotoxicity rating (0-100 scale) ([14]; 125 g ai/ha): 5
CORN crop damage, phytotoxicity rating (0-100 scale) ([14]; 250 g ai/ha): 5
RICE crop damage, phytotoxicity rating (0-100 scale) ([15]; 125 g ai/ha): 0
RICE crop damage, phytotoxicity rating (0-100 scale) ([15]; 250 g ai/ha): 0
SOY crop damage, phytotoxicity rating (0-100 scale) ([16]; 125 g ai/ha): 10
SOY crop damage, phytotoxicity rating (0-100 scale) ([16]; 250 g ai/ha): 10
ECHCG phytotoxicity rating (0-100 scale) ([17]; 125 g ai/ha): 0
ECHCG phytotoxicity rating (0-100 scale) ([17]; 250 g ai/ha): 0
CASOB phytotoxicity rating (0-100 scale) ([18]; 125 g ai/ha): 60
CASOB phytotoxicity rating (0-100 scale) ([18]; 250 g ai/ha): 65
CHEAL phytotoxicity rating (0-100 scale) ([19]; 125 g ai/ha): 100
CHEAL phytotoxicity rating (0-100 scale) ([19]; 250 g ai/ha): 100
IPOHE phytotoxicity rating (0-100 scale) ([20]; 125 g ai/ha): 75
IPOHE phytotoxicity rating (0-100 scale) ([20]; 250 g ai/ha): 100
ABUTH phytotoxicity rating (0-100 scale) ([21]; 125 g ai/ha): 95
ABUTH phytotoxicity rating (0-100 scale) ([21]; 250 g ai/ha): 95
SORHA phytotoxicity rating (0-100 scale) ([22]; 125 g ai/ha): 0
SORHA phytotoxicity rating (0-100 scale) ([22]; 250 g ai/ha): 0
AMBEL phytotoxicity rating (0-100 scale) ([23]; 125 g ai/ha): 55
AMBEL phytotoxicity rating (0-100 scale) ([23]; 250 g ai/ha): 55
SETVI phytotoxicity rating (0-100 scale) ([24]; 125 g ai/ha): 0
SETVI phytotoxicity rating (0-100 scale) ([24]; 250 g ai/ha): 0
AMARE phytotoxicity rating (0-100 scale) ([25]; 125 g ai/ha): 90
AMARE phytotoxicity rating (0-100 scale) ([25]; 250 g ai/ha): 90
DIGSA phytotoxicity rating (0-100 scale) ([26]; 125 g ai/ha): 0
DIGSA phytotoxicity rating (0-100 scale) ([26]; 250 g ai/ha): 0

Source: patent US6613718B2, “Aryl ether derivatives and processes for their preparation and herbicidal and desiccant compositions containing them” (Ishihara Sangyo Kaisha, Ltd., priority 2001, dated 2003)
